In ChEMBL document CHEMBL5053549, “Discovery of Potent and Novel Dual PARP/BRD4 Inhibitors for Efficient Treatment of Pancreatic Cancer” (J Med Chem, 2021):
Active and inactive are the calls of the source. No cut-off for these calls is given here.

Experiments:
[1] = system: SW1990; assay: Induction of cell cycle arrest in human SW1990 cells assessed as accumulation of cells at G2/M phase at 2 uM incubated for 4 days by propidium iodide staining based flow cytometry (reference value: 5.89%); assay type: functional; settings: time 4 day
[2] = system: Mus musculus; assay: Inhibition of homologous recombinant repair in human SW1990 cells xenografted in BALB/c mouse assessed as reduction in Rad51 expression at 45 mg/kg, ip after 4 days by immunohistochemical analysis; assay type: functional, organism-based; settings: time 4.0 day
[3] = system: SW1990; assay: Inhibition of homologous recombinant repair in human SW1990 cells assessed as reduction in Rad51 expression at 1 to 2 uM after 4 days by Q-PCR analysis; assay type: functional, cell-based; settings: dose 1-2 µM, time 4.0 day
[4] = system: Mus musculus; assay: In vivo inhibition of BRD4 expression in human […] cells xenografted in BALB/c mouse at 45 mg/kg, ip administered for 28 consecutive days by Q-PCR analysis; assay type: functional, organism-based; settings: time 28.0 day
[5] = system: Mus musculus; assay: Effect on cell cycle progression in human SW1990 cells xenografted in BALB/c mouse assessed as reduction in CCND1 expression at 45 mg/kg, ip after 4 days by Western blot analysis; assay type: functional, organism-based; settings: time 4.0 day
[6] = target: T1, Bromodomain-containing protein 1 (Homo sapiens, UniProt O95696); assay: Inhibition of recombinant BRD1 (unknown origin) incubated for 120 mins by TR-FRET assay
T1 sequence (O95696 whole entry): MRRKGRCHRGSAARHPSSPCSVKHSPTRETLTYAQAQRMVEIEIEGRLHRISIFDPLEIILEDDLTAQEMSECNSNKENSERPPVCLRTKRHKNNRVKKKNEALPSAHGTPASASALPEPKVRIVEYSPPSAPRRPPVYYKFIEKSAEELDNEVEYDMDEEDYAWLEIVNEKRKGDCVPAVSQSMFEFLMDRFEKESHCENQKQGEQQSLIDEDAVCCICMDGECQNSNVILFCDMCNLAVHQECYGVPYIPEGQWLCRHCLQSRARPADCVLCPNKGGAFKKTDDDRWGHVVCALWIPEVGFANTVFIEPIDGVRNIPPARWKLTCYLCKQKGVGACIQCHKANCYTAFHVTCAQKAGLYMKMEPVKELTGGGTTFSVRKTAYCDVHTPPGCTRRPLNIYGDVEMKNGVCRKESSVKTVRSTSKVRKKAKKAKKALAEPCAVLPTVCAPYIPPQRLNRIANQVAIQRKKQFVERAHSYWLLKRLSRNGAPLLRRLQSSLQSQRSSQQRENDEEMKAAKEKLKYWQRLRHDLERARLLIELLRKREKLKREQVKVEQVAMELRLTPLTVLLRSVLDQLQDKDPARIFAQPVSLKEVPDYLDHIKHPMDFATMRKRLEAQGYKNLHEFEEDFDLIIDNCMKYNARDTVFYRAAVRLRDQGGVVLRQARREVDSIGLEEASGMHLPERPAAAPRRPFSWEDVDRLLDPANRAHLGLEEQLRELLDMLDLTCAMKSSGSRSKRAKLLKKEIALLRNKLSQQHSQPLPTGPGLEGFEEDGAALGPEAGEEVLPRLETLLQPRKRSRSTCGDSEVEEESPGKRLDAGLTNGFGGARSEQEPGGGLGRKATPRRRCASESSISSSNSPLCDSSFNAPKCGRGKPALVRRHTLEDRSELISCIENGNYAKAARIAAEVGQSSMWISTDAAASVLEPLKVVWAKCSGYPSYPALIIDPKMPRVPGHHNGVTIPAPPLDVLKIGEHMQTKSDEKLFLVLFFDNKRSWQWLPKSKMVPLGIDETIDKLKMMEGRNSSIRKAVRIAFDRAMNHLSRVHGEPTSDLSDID

[7] = system: SW1990; assay: Induction of cell cycle arrest in human SW1990 cells assessed as accumulation of cells at G0/G1 phase at 1 uM incubated for 4 days by propidium iodide staining based flow cytometry (reference value: 64.79%); assay type: functional; settings: time 4 day
[8] = system: SW1990; assay: Induction of autophagy in human SW1990 cells assessed as increase in pAMPKalpha expression at 1 to 2 uM incubated for 4 days by immunofluorescence assay; assay type: functional, cell-based; settings: dose 1-2 µM, time 4.0 day
[9] = system: SW1990; assay: Induction of autophagy in human SW1990 cells assessed as increase in LC3B expression at 1 to 2 uM incubated for 4 days by immunofluorescence assay; assay type: functional, cell-based; settings: dose 1-2 µM, time 4.0 day
[10] = system: SW1990; assay: Induction of cell cycle arrest in human SW1990 cells assessed as accumulation of cells at G2/M phase at 1 uM incubated for 4 days by propidium iodide staining based flow cytometry (reference value: 5.89%); assay type: functional; settings: time 4 day
[11] = system: SW1990; assay: Induction of autophagy in human SW1990 cells assessed as increase in Beclin1 expression at 1 to 2 uM incubated for 4 days by immunofluorescence assay; assay type: functional, cell-based; settings: dose 1-2 µM, time 4.0 day
[12] = system: SW1990; assay: Inhibition of homologous recombinant repair in human SW1990 cells assessed as reduction in BRCA1 expression at 1 to 2 uM after 4 days by Western blot analysis; assay type: functional, cell-based; settings: dose 1-2 µM, time 4.0 day
[13] = target: Bromodomain-containing protein 4 (Homo sapiens, UniProt O60885); assay: Inhibition of BRD4 expression in human SW1990 cells at 1 uM after 4 days by Q-PCR analysis; assay type: cell-based; settings: time 4.0 day
[14] = system: SW1990; assay: Inhibition of homologous recombinant repair in human SW1990 cells assessed as reduction in Olaparib-induced FOXM1 expression at 1 uM after 4 days in presence of Olaparib by Q-PCR analysis; assay type: functional, cell-based; settings: time 4.0 day
[15] = system: SW1990; assay: Inhibition of homologous recombinant repair in human SW1990 cells assessed as reduction in FOXM1 expression at 4 uM after 4 days by Western blot analysis; assay type: functional, cell-based; settings: time 4.0 day
[16] = system: Mus musculus; assay: Toxicity in BALB/c mouse xenografted with human SW1990 cells assessed as effect on body weight at 15 mg/kg, ip administered for 28 consecutive days; assay type: organism-based; settings: in vivo, 672 h, time 28 day
[17] = system: SW1990; assay: Induction of apoptosis in human SW1990 cells assessed as necrotic cells at 1 uM after 4 days in presence of 3 uM Olaparib by Annexin V-FITC and propidium iodide staining based flow cytometry (reference value: 1.89%); assay type: functional; settings: time 4 day
[18] = system: Mus musculus; assay: In vivo inhibition of BRD4 expression in human SW1900 cells xenografted in BALB/c mouse assessed as reversal of Olaparib-induced BRD4 accumulation at 15 mg/kg, ip administered for 28 consecutive days in presence of 45 mg/kg Olaparib by Western blot analysis; assay type: functional, organism-based; settings: time 28.0 day
[19] = system: SW1990; assay: Inhibition of colony formation in human SW1990 cells at 0.5 uM after 14 days in presence of 1.5 uM Olaparib by crystal violet staining based microscopic analysis; assay type: functional, cell-based; settings: time 14.0 day
[20] = system: SW1990; assay: Inhibition of homologous recombinant repair in human SW1990 cells assessed as reduction in c-Myc expression at 4 uM after 4 days by Western blot analysis; assay type: functional, cell-based; settings: time 4.0 day
[21] = system: Mus musculus; assay: Toxicity in BALB/c mouse xenografted with human SW1990 cells assessed as heart damage at 15 mg/kg, ip administered for 28 consecutive days in presence of 45 mg/kg Olaparib; assay type: organism-based; settings: in vivo, 672 h, time 28 day
[22] = system: SW1990; assay: Induction of autophagy in human SW1990 cells assessed as reduction in p62 expression at 4 uM incubated for 4 days by immunofluorescence assay; assay type: functional, cell-based; settings: time 4.0 day
[23] = system: Mus musculus; assay: Toxicity in BALB/c mouse xenografted with human SW1990 cells assessed as liver damage at 15 mg/kg, ip administered for 28 consecutive days by H and E staining based […] microscopic analysis; assay type: organism-based; settings: in vivo, 672 h, time 28 day

## CC[C@@H]1C(=O)N(C)c2cnc(N(C)c3ccc(-c4nc5c(C(N)=O)cccc5[nH]4)cc3OC)nc2N1C1CCCC1
[1]
  Activity: 13.22%
[2]
  inhibition: Active
[3]
  inhibition: Active
[4]
  Activity: Active
[5]
  Activity: Active
[6]
  IC50: 36.5 µM
[7]
  Activity: 74.76%
[8]
  Activity: Active
[9]
  Activity: Active
[10]
  Activity: 10.5%
[11]
  Activity: Active
[12]
  inhibition: Active
[13]
  inhibition: Active

## Cc1sc2c(c1C)C(c1ccc(Cl)cc1)=N[C@@H](CC(=O)OC(C)(C)C)c1nnc(C)n1-2
[14]
  inhibition: Active
[15]
  inhibition: Active
[16]
  Activity: Non-Toxic
[17]
  Activity: 5.53%
[18]
  Activity: Active
[19]
  inhibition: Active
[20]
  inhibition: Active
[21]
  Activity: Non-Toxic
[22]
  Activity: Active
[23]
  Activity: Non-Toxic
